Data from PubChem BioAssay AID488881 (Sanford-Burnham Center for Chemical Genomics, 2010).
The source made the active and inactive calls.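 How the source made its calls: active means mean EC50 below 10 µM; inactive means the rest.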

Target: Type-1 angiotensin II receptor (Homo sapiens) (UniProt P30556)
Assay: AGTR1 activation selectivity check – cell-based, CHO-K1 PathHunter, luminescence, selectivity assay for APJ agonist project, SAR follow-up (AID 488881)
Conditions: CHO-K1 AGTR1 PathHunter beta-arrestin

Type-1 angiotensin II receptor (Homo sapiens), sequence (P30556 whole entry, looked up): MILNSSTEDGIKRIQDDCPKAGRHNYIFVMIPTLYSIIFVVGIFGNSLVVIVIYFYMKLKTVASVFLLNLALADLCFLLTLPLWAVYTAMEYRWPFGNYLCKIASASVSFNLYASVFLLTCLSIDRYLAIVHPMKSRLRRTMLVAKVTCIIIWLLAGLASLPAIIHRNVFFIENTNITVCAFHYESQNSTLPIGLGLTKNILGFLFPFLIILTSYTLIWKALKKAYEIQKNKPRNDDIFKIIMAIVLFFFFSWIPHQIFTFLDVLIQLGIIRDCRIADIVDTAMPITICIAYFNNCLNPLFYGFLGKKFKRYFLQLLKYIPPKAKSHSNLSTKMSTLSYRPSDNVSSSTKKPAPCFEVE

| SMILES | EC50 |
| --- | --- |
| CC1=CC(=NOS(=O)(=O)c2ccccc2)C=C(C)C1=O | > 79 µM (inactive) |
| C=CCSc1nc(O)c(CC)c(=O)n1C1CCCCC1 | > 79 µM (inactive) |
| O=S(=O)(Nc1nc(-c2ccccc2)cs1)c1ccc(Cl)cc1 | > 79 µM (inactive) |
| CC1=CC(=NOS(=O)(=O)c2ccccc2)C(C(C)C)=CC1=O | > 79 µM (inactive) |
| CC1=C/C(=N/OS(=O)(=O)c2ccc(C)cc2)C(C(C)C)=CC1=O | > 79 µM (inactive) |
| CCN1/C(=C\C=C2/SC(=S)N(C)C2=O)Sc2ccccc21 | > 79 µM (inactive) |
| CC1=C/C(=N\OS(=O)(=O)c2ccc(Cl)cc2)C=CC1=O | > 79 µM (inactive) |
| CC1=CC(=O)C=C(C)C1=NOS(=O)(=O)c1ccccc1 | > 79 µM (inactive) |
| CC1=CC(=NOS(=O)(=O)c2ccc(Cl)cc2)C=C(C)C1=O | > 79 µM (inactive) |
| CCSc1nc(O)c(CC)c(=O)n1C1CCCCC1 | > 79 µM (inactive) |
| CCc1c(O)n(C2CCCCC2)c(=S)[nH]c1=O | > 79 µM (inactive) |
| CCc1c(O)nc(SC(C)CC)n(C(C)CC)c1=O (configuration not stated) | > 79 µM (inactive) |
| O=S(=O)(Nc1nc(-c2ccccc2)cs1)c1ccc(Br)cc1 | > 79 µM (inactive) |
| CCCCSc1nnc(NC(=O)CSc2nc3ncccc3[nH]2)s1 | > 79 µM (inactive) |
| CC1=C/C(=N/OS(=O)(=O)c2ccccc2)C(C)=CC1=O | > 79 µM (inactive) |
| CC1=C/C(=N\OS(=O)(=O)c2ccc(C)cc2)C(C)=CC1=O | > 79 µM (inactive) |
| Cc1ccc(S(=O)(=O)Nc2nc(-c3ccccc3)cs2)cc1 | > 79 µM (inactive) |
| CC1=C/C(=N/OS(=O)(=O)c2ccc(C)cc2)C=CC1=O | > 79 µM (inactive) |
| CC1=CC(=NOS(=O)(=O)c2ccc(C)cc2)C=C(C)C1=O | > 79 µM (inactive) |
| Cc1cc(C)n2nc3nc(N4CCOCC4)nc(-c4ccccc4)c3c2n1 | > 79 µM (inactive) |
| CC1=C(C)C(=NOS(=O)(=O)c2ccc(C)cc2)C=CC1=O | > 79 µM (inactive) |

| SMILES | EC50 |
| --- | --- |
| CC1=CC(=NOS(=O)(=O)c2ccccc2)C=CC1=O | > 79 µM (inactive) |
| CCCSc1nc(O)c(CC)c(=O)n1C(C)CC (configuration not stated) | > 79 µM (inactive) |
| C=CCSc1nc(O)c(CC)c(=O)n1-c1ccc(C)cc1 | > 79 µM (inactive) |
| CCc1c(O)nc(SC)n(C(C)CC)c1=O (configuration not stated) | > 79 µM (inactive) |
| CN(C)CCSc1nc(O)c(-c2ccccc2)c(=O)n1-c1ccccc1 | > 79 µM (inactive) |
| CC1=CC(=O)C=C/C1=N\OS(=O)(=O)c1ccc(C)cc1 | > 79 µM (inactive) |
| C=CCSc1nc(O)c(CC)c(=O)n1C(C)CC (configuration not stated) | > 79 µM (inactive) |
| COc1ccc(S(=O)(=O)ON=C2C=C(C)C(=O)C(C)=C2)cc1 | > 79 µM (inactive) |
| CCSc1nc(O)c(CC)c(=O)n1C(C)CC (configuration not stated) | > 79 µM (inactive) |
| CCc1c(O)nc(SCc2ccccc2)n(C(C)CC)c1=O (configuration not stated) | > 79 µM (inactive) |
| CCCCSc1nc(O)c(CC)c(=O)n1C1CCCCC1 | > 79 µM (inactive) |
| Cc1ccc(S(=O)(=O)ON=C2C=CC(=O)C=C2)cc1 | > 79 µM (inactive) |
| CC1=CC(=O)C(C(C)C)=C/C1=N/OS(=O)(=O)c1ccccc1 | > 79 µM (inactive) |
| CCN1/C(=C/C(=O)c2sc(=S)n(CC)c2O)Sc2ccccc21 | > 79 µM (inactive) |
| CCc1c(O)nc(SCc2ccccc2)n(C2CCCCC2)c1=O | > 79 µM (inactive) |
| COc1ccccc1-n1c(SCC(=O)c2ccccc2)nc(O)cc1=O | > 79 µM (inactive) |
| C=CCn1c(SCc2ccccc2)nc(O)c(CC)c1=O | > 79 µM (inactive) |
| CC1=CC(=O)C(C(C)C)=CC1=NOS(=O)(=O)c1ccccc1 | > 79 µM (inactive) |
| COc1ccc(S(=O)(=O)O/N=C2\C=C(C(C)C)C(=O)C=C2C)cc1 | > 79 µM (inactive) |
| CCc1c(O)nc(SC)n(C2CCCCC2)c1=O | > 79 µM (inactive) |
| CSc1nc(=O)cc(N)n1-c1ccc(C)cc1 | > 79 µM (inactive) |
